From ChEMBL document CHEMBL1150919, “The inhibition of the reverse transcriptase of HIV-1 by the natural sulfoglycolipids from cyanobacteria: contribution of different moieties to their high potency” (J Nat Prod, 1998)

Tests used:
[1] = target: Human immunodeficiency virus type 1 reverse transcriptase (Human immunodeficiency virus 1, UniProt Q72547); experiment: (§1) Inhibition of HIV1 reverse transcriptase activity assessed as residual enzyme activity by poly(rA)n.oligo(dT)12-18-directed incorporation of [3H]dTTP into DNA
[2] = target: Human immunodeficiency virus type 1 reverse transcriptase (Human immunodeficiency virus 1) (UniProt Q72547); experiment: as §1
[3] = test system: Human immunodeficiency virus 1; experiment: Inhibition of HIV1 RNase H activity assessed as residual enzyme activity by poly(rA)n.oligo(dT)12-18-directed incorporation of [3H]dTTP into DNA at 100 uM relative to control
[4] = Inhibition of HIV2 reverse transcriptase-mediated DNA polymerase activity; design: species or system Human immunodeficiency virus 2

SMILES | IC50 [1] [µM] | IC90 [2] [µM] | Activity [3] [%] | IC50 [4] [µM]
CCCCCCCC/C=C\CCCCCCCC(=O)OC[C@H](CO[C@H]1O[C@H](CS(=O)(=O)O)[C@@H](O)[C@H](O)[C@H]1O)OC(=O)CCCCCCCCCCCCCCC | 0.024 | 0.076 | 66 | 0.034
CCCCCCCC/C=C\CCCCCCCC(=O)OC[C@H](CO[C@@H]1O[C@H](CO)[C@H](O)[C@H](O)[C@H]1O)OC(=O)CCCCCCCCCCCCCCC | 65 | > 100 | 100 | –
CCCCCCCCCCCCCCCC(=O)OC[C@H](CO[C@@H]1O[C@H](CO)[C@H](O)[C@H](O)[C@H]1O)OC(=O)CCCCCCCCCCCCCCC | > 100 | > 100 | 100 | –
CCCCC/C=C\C/C=C\CCCCCCCC(=O)OC[C@H](CO[C@H]1O[C@H](CS(=O)(=O)O)[C@@H](O)[C@H](OC(=O)CCCCCCCCCCCCCCC)[C@H]1OC(=O)CCCCCCCCCCCCCCC)OC(=O)CCCCCCCCCCCCCCC | 2.95 | 14 | 100 | –
OC[C@@H](O)CO[C@@H]1O[C@H](CO[C@H]2O[C@H](CO)[C@H](O)[C@H](O)[C@H]2O)[C@H](O)[C@H](O)[C@H]1O | > 100 | – | – | –

Continued, values first:

IC50 [1] [µM] | IC90 [2] [µM] | Activity [3] [%] | IC50 [4] [µM] | SMILES
75 | > 100 | – | – | O=S(=O)(O)C[C@H]1O[C@H](OC[C@H](O)CO)[C@H](O)[C@@H](O)[C@@H]1O
> 100 | – | – | – | OC[C@@H](O)CO[C@H]1O[C@H](CO)[C@@H](O)[C@H](O)[C@H]1O
99.4 | > 100 | 100 | – | CCCCC/C=C\C/C=C\CCCCCCCC(=O)OC[C@H](CO[C@@H]1O[C@H](CO[C@H]2O[C@H](CO)[C@H](O)[C@H](OC(=O)CCCCCCCCCCCCCCC)[C@H]2O)[C@H](O)[C@H](O)[C@H]1O)OC(=O)CCCCCCCCCCCCCCC
0.112 | 0.465 | 45 | – | CCCCCCCCCCCCCCCC(=O)OC[C@H](CO[C@H]1O[C@H](CS(=O)(=O)O)[C@@H](O)[C@H](O)[C@H]1O)OC(=O)CCCCCCCCCCCCCCC
0.077 | 0.28 | 100 | – | CCCCC/C=C\C/C=C\CCCCCCCC(=O)OC[C@H](CO[C@H]1O[C@H](CS(=O)(=O)O)[C@@H](O)[C@H](O)[C@H]1O)OC(=O)CCCCCCCCCCCCCCC
> 100 | – | – | – | OC[C@@H](O)CO[C@@H]1O[C@H](CO)[C@H](O)[C@H](O)[C@H]1O
38 | > 100 | 100 | – | CCCCC/C=C\C/C=C\CCCCCCCC(=O)OC[C@H](CO[C@@H]1O[C@H](CO)[C@H](O)[C@H](O)[C@H]1O)OC(=O)CCCCCCCCCCCCCCC
